The results in this text go back to ChEMBL document CHEMBL1201862, “PubChem BioAssay data set” (2004).

Each structure is given as a SMILES string. Where “and” joins values, the source holds several entries; their conditions need not be identical. Identical values can stand only once.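 All cell lines were grown in 96-well plates and treated with compound for 48 hours. Here, GI50 denotes the concentration required for 50% inhibition of growth.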 Calls of active or inactive are those of the source. Rule as the data show it: active = GI50 up to about 1.1 µM and inactive = higher.

Test systems include HT-29; IGROV-1; UACC-257; BT-549; NCI-H460; SNB-19; SNB-75; SW-620; SF-295; T47D; SK-MEL-28; CAKI-1; SF-268; NCI/ADR-RES; EKVX; RXF 393; Hs-578T; U-251; OVCAR-5; SR.
What all share (test): NCI anticancer screen, dose series, 48 h

As to `COc1nc(N)nc2c1n(C)c[n+]2C`, the GI50 in the test on HT-29, in the test with IGROV-1, in the test with UACC-257, with BT-549, in the test with NCI-H460 and in the test on SNB-19 was > 100 µM (inactive) throughout. Besides, the GI50 in the test with SNB-75, in the test with SW-620, in the test with SF-295, in the test with T47D, in the test with SK-MEL-28 and with CAKI-1 was > 100 µM (inactive) in each case. Also, the GI50 with SF-268, in the test on NCI/ADR-RES, in the test on EKVX, in the test with RXF 393, with Hs-578T and in the test on U-251 was > 100 µM (inactive) each time. Besides, the GI50 in the test on OVCAR-5 is > 100 µM (inactive).

`CC(C)C1C(=O)N2CCCC2C2(O)OC(NC(=O)C3C=C4c5cccc6[nH]cc(c56)CC4N(C)C3)(C(C)C)C(=O)N12` (stereo unspecified): the GI50 in the test with HT-29 is 18 µM (inactive); in the test with IGROV-1, 14.9 µM (inactive); in the test on UACC-257, 28.7 µM (inactive); with BT-549, 25.4 µM (inactive); in the test on NCI-H460, 19 µM (inactive); in the test with SNB-19 it was 44.4 µM (inactive). For the same compound, the GI50 in the test on SNB-75 is 15.3 µM (inactive); with SW-620, 30.1 µM (inactive); in the test on SF-295, 28.2 µM (inactive); in the test on T47D it was 47.6 µM (inactive); in the test with SK-MEL-28 it was 25.5 µM (inactive); with CAKI-1, 16.7 µM (inactive). In addition, the GI50 in the test on SF-268 was 41.1 µM (inactive); with NCI/ADR-RES, 21.1 µM (inactive); in the test with EKVX it was 19.5 µM (inactive); in the test on Hs-578T, 22.5 µM (inactive); in the test on U-251, 26.4 µM (inactive); in the test on SR, 32.4 µM (inactive). In the test with OVCAR-5, the GI50 is 13.2 µM (inactive).

Turning to `CCCCc1ccc(Nc2nc(OC)c3ncn(C4CC(O)C(CO)O4)c3n2)cc1` (stereo unspecified), the GI50 in the test with HT-29 was 19.2 µM (inactive); in the test with IGROV-1, 12.5 µM (inactive); in the test on UACC-257 it was 17.7 µM (inactive); in the test on BT-549, 18.9 µM (inactive); in the test with NCI-H460, 16.4 µM (inactive); with SNB-19, 19.2 µM (inactive). Moreover, the GI50 in the test with SNB-75 was 18 µM (inactive); in the test with SW-620 it was 19.7 µM (inactive); in the test with SF-295 it was 18.5 µM (inactive); in the test with T47D, 18.9 µM (inactive); in the test with CAKI-1 it was 1.85 µM (inactive); in the test on SF-268 it was 16.6 µM (inactive). Further, the GI50 in the test on NCI/ADR-RES is 27 µM (inactive); in the test on EKVX, 1.58 µM (inactive); in the test on RXF 393, 14.8 µM (inactive); in the test on Hs-578T, 18.4 µM (inactive); with U-251, 20.7 µM (inactive); in the test on OVCAR-5 it was 35.4 µM (inactive).

As to `CN(Cc1cnc2nc(N)nc(N)c2n1)c1ccc(C(=O)NC(CCS(=O)(=O)O)C(=O)O)cc1` (stereo unspecified), the GI50 in the test on HT-29 is 4.02 µM (inactive); in the test on IGROV-1, 0.553 µM (active); in the test on UACC-257, > 100 µM (inactive); in the test with BT-549, > 100 µM (inactive); in the test on NCI-H460, 0.409 µM (active); with SNB-19 it was 7.16 µM (inactive). The GI50 in the test with SW-620 is 0.379 µM (active); in the test on SF-295, 0.681 µM (active); in the test on T47D, > 100 µM (inactive); in the test with SK-MEL-28 it was > 100 µM (inactive); with CAKI-1 it was > 100 µM (inactive); in the test with SF-268, 0.465 µM (active). For the same compound, the GI50 is 2.31 µM (inactive) with NCI/ADR-RES; 1.31 µM (inactive) in the test with EKVX; > 100 µM (inactive) in the test on Hs-578T; 0.136 µM (active) in the test with SR; 0.144 µM (active) in the test with OVCAR-5.

Regarding `Cc1c2c(n(CCc3ccccc3)c1C)NN=C(C#N)S2(=O)=O`, the GI50 in the test on HT-29, in the test on IGROV-1, with UACC-257, in the test on BT-549, with NCI-H460 and with SNB-19 was > 100 µM (inactive) each time. Further, the GI50 in the test with SNB-75, with SW-620, with T47D, in the test on SK-MEL-28, in the test on SF-268 and in the test with NCI/ADR-RES was > 100 µM (inactive) each time. Besides, the GI50 is > 100 µM (inactive) in the test on EKVX; > 100 µM (inactive) in the test with Hs-578T; > 100 µM (inactive) in the test with U-251; 6.53 µM (inactive) in the test on SR; > 100 µM (inactive) with OVCAR-5.

Turning to `CCNC(=O)CCC(C)[C@H]1CCC2C3C(C[C@H](OC(C)=O)[C@@]21C)[C@@]1(C)CCC2(C[C@H]1C[C@H]3OC(C)=O)OOC1(CCC(C)CC1)OO2` (stereo partly specified), the GI50 in the test with IGROV-1 was 1.35 µM (inactive) and 1.41 µM (inactive); with UACC-257 it was 4.63 µM (inactive) and 2.62 µM (inactive); with BT-549, 2.03 µM (inactive) and 1.57 µM (inactive); in the test on NCI-H460, 2.39 µM (inactive) and 1.75 µM (inactive); in the test with SNB-19, 6.38 µM (inactive) and 4.21 µM (inactive); in the test with SNB-75, 1.59 µM (inactive) and 1.95 µM (inactive). Moreover, the GI50 was 4.6 µM (inactive) and 2.74 µM (inactive) with SW-620; 3.82 µM (inactive) and 2 µM (inactive) in the test with SF-295; 1.43 µM (inactive) and 1.68 µM (inactive) in the test on T47D; 2.9 µM (inactive) and 3.47 µM (inactive) in the test on SK-MEL-28; 1.5 µM (inactive) and 820 nM (active) in the test with CAKI-1; 3.31 µM (inactive) and 1.73 µM (inactive) with NCI/ADR-RES. Also, the GI50 was 1.39 µM (inactive) and 1.3 µM (inactive) with EKVX; 2.62 µM (inactive) and 2.68 µM (inactive) in the test on Hs-578T; 2.09 µM (inactive) and 1.6 µM (inactive) in the test on U-251; 1.17 µM (inactive) and 1.03 µM (active) in the test with SR; 2.7 µM (inactive) and 1.82 µM (inactive) in the test on OVCAR-5.

For `CC(=O)NC(CSC1=C2NC(=O)\C=C/C=C\C=C/C(C)C(O)CC(=O)/C(C)=C\CC(O)/C=C\C(C)C(O)C(C)C=C(C)C(=O)c3c(O)c(C)cc(c3C1=O)C2=O)C(=O)O` (stereo unspecified), the GI50 in the test on HT-29 was 47.2 µM (inactive); in the test on IGROV-1, 43.1 µM (inactive); in the test on UACC-257, 41.8 µM (inactive); in the test on BT-549, > 100 µM (inactive); with NCI-H460, 94 µM (inactive); with SNB-19, 61.4 µM (inactive). Further, the GI50 is 28.6 µM (inactive) in the test on SNB-75; 45.7 µM (inactive) with SW-620; > 100 µM (inactive) with SF-295; 91 µM (inactive) in the test on T47D; 30.3 µM (inactive) with SK-MEL-28; > 100 µM (inactive) with CAKI-1. The GI50 with NCI/ADR-RES was > 100 µM (inactive); with EKVX, > 100 µM (inactive); in the test on Hs-578T it was 27.5 µM (inactive); with U-251 it was 43.2 µM (inactive); in the test on SR, 33.5 µM (inactive); in the test on OVCAR-5, > 100 µM (inactive).

For `CCC(=O)OC1CCn2c1nc1c2C(=O)C(C)=C(N2CC2)C1=O` (stereo unspecified), the GI50 in the test on HT-29 is 0.183 µM (active); with IGROV-1, 0.482 µM (active); in the test on UACC-257 it was 0.0711 µM (active); in the test with BT-549, 0.0546 µM (active); in the test on NCI-H460, 0.045 µM (active); in the test on SNB-19, 0.0989 µM (active). The GI50 in the test with SNB-75 was 0.0301 µM (active); with SW-620 it was 0.0488 µM (active); with SF-295, 0.0728 µM (active); in the test with T47D, 1.6 µM (inactive); in the test on SK-MEL-28 it was 0.0791 µM (active); in the test with CAKI-1, 0.0509 µM (active). In addition, the GI50 in the test with SF-268 was 0.0755 µM (active); with NCI/ADR-RES it was 0.048 µM (active); in the test with EKVX, 0.224 µM (active); in the test on RXF 393, 0.0565 µM (active); in the test with Hs-578T it was 0.0455 µM (active); in the test with U-251, 0.0371 µM (active). Moreover, in the test with OVCAR-5, the GI50 was 0.0902 µM (active).

As for `CCCCSC1=N/C(=C\c2ccccc2O)C(=O)N1`, the GI50 is 70.6 µM (inactive) in the test on HT-29; > 100 µM (inactive) in the test on IGROV-1; 31.2 µM (inactive) with UACC-257; 49.4 µM (inactive) in the test with BT-549; 53.2 µM (inactive) in the test on NCI-H460; 77.8 µM (inactive) with SNB-19. Also, the GI50 in the test on SNB-75 was > 100 µM (inactive); with SW-620, > 100 µM (inactive); in the test with SF-295, 92 µM (inactive); with T47D, 32.7 µM (inactive); with SK-MEL-28 it was > 100 µM (inactive); in the test with CAKI-1 it was > 100 µM (inactive). In addition, the GI50 with SF-268 is > 100 µM (inactive); in the test with NCI/ADR-RES, 66.7 µM (inactive); in the test with EKVX it was 35.7 µM (inactive); with RXF 393, 50.5 µM (inactive); in the test with Hs-578T, > 100 µM (inactive); in the test with U-251, 43.8 µM (inactive). Besides, the GI50 in the test on OVCAR-5 is > 100 µM (inactive).

For `C=CCn1c(-c2cc(C(C)(C)C)c(O)c(C(C)(C)C)c2)cs/c1=N\C(P(=O)(O)O)P(=O)(O)O`, the GI50 in the test on HT-29, with IGROV-1, in the test on BT-549, in the test with NCI-H460, in the test with SNB-19 and with SNB-75 was > 100 µM (inactive) throughout. Moreover, the GI50 in the test with SW-620, in the test on SF-295, in the test on T47D, in the test with SK-MEL-28, with CAKI-1 and with SF-268 was > 100 µM (inactive) throughout. In addition, the GI50 in the test with NCI/ADR-RES, with EKVX, in the test on Hs-578T, in the test with U-251, in the test with SR and in the test with OVCAR-5 was > 100 µM (inactive) in each case.
